Test results reported in patent US20260355196A1, “INHIBITORS AND DEGRADERS OF PIP4K PROTEIN” (Larkspur Biosciences, Inc., priority 2023, published 2026).
pIC50: −log10 of the molar value.

These molecules were tested against T1, PIP4K2C (Homo sapiens, UniProt Q8TBX8) (assay: Enzyme Binding Assay (KINOMEscan): active site-directed competition binding to an immobilized ligand). Settings: 11-point dose response, duplicate, top concentration 5 micromolar; read-out: Pip4k2c Kd: IC50.
T1 sequence (Q8TBX8 1-421): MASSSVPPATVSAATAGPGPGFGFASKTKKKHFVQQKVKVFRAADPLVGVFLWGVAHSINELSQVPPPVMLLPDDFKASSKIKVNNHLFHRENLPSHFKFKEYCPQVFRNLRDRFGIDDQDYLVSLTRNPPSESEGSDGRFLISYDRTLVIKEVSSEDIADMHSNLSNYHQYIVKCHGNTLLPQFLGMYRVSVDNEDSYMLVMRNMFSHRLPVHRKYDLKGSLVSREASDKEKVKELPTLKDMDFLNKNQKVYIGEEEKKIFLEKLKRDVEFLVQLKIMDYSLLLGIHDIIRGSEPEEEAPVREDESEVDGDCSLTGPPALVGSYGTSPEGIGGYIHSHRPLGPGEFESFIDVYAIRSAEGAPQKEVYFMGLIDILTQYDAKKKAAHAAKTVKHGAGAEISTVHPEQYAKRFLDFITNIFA
Set-up: purchased Eurofins DiscoverX, San Diego, CA 87-0007-1094
Procedure: Example B-1: Enzyme Binding Assays (KINOMEscan)
PIP4K2C binding constants disclosed herein were determined using the proprietary Human PIP4K2C binding assay (Catalog number 87-0007-1094, Eurofins DiscoverX, San Diego, CA). This assay measures active site-directed competition binding to an immobilized ligand (see https://doi.org/10.1038/nbt1068, herein incorporated by reference in its entirety). Experiments were conducted using an 11-point dose response curve, in duplicate, with a top starting concentration of 5 micromolar; the Levenberg-Marquardt algorithm was used to fit a Hill equation to dose-response data to calculate IC50 values (see Table 5).

Row | SMILES | pIC50
1 | NC(=O)[C@H]1CCC[C@@H](Nc2ncc(F)c(-c3ccn(-c4ccc(F)cc4)n3)n2)C1 (relative stereo) [Compound 42, cis-3-((5-fluoro-4-(1-(4-fluorophenyl)-1H-pyrazol-3-yl)pyrimidin-2-yl)amino)cyclohexane-1-carboxamide] | 5.30 to 6.00
2 | NC(=O)[C@H]1CCC[C@@H](Nc2ncc(F)c(-c3cnn(-c4ccc(F)cc4)c3)n2)C1 (relative stereo) [Compound 43, cis-3-((5-fluoro-4-(1-(4-fluorophenyl)-1H-pyrazol-4-yl)pyrimidin-2-yl)amino)cyclohexane-1-carboxamide] | 6.00 to 6.30
3 | NC(=O)[C@@H]1CCC[C@H](Nc2ncc(F)c(C3CCCN(c4ccc(F)cc4)C3)n2)C1 (relative stereo) [Compound 91, cis-3-((5-fluoro-4-(1-(4-fluorophenyl)piperidin-3-yl)pyrimidin-2-yl)amino)cyclohexane-1-carboxamide] | > 6.30
4 | NC(=O)[C@@H]1CCC[C@H](Nc2ncc(F)c(-c3cccc(-c4cccc(=O)[nH]4)c3)n2)C1 (relative stereo) [Compound 112, cis-3-((5-fluoro-4-(3-(6-oxo-1,6-dihydropyridin-2-yl)phenyl)pyrimidin-2-yl)amino)cyclohexane-1-carboxamide] | > 6.30
5 | NC(=O)[C@@H]1CCC[C@H](Nc2ncc(F)c(-c3ccn(C4CCCCC4)n3)n2)C1 (relative stereo) [Compound 113, cis-3-((4-(1-cyclohexyl-1H-pyrazol-3-yl)-5-fluoropyrimidin-2-yl)amino)cyclohexane-1-carboxamide] | 5.30 to 6.00
6 | NC(=O)[C@H]1CCC[C@@H](Nc2ncc(Cl)c(C3CCN(C(=O)c4ccc(F)cc4)C3)n2)C1 (relative stereo) [Compound 135, cis-3-((5-chloro-4-(1-(4-fluorobenzoyl)pyrrolidin-3-yl)pyrimidin-2-yl)amino)cyclohexane-1-carboxamide] | > 6.30
7 | NC(=O)[C@@H]1CCC[C@H](Nc2ncc(Cl)c(-c3cccc(-n4ccccc4=O)c3)n2)C1 (relative stereo) [Compound 136, cis-3-((5-chloro-4-(3-(2-oxopyridin-1 (2H)-yl)phenyl)pyrimidin-2-yl)amino)cyclohexane-1-carboxamide] | > 6.30
8 | NC(=O)[C@@H]1CCC[C@H](Nc2ncc(F)c(-c3cccc(-c4ccc[nH]c4=O)c3)n2)C1 (relative stereo) [Compound 150, cis-3-((5-fluoro-4-(3-(2-oxo-1,2-dihydropyridin-3-yl)phenyl)pyrimidin-2-yl)amino)cyclohexane-1-carboxamide] | > 6.30
9 | NC(=O)[C@H]1CCC[C@@H](Nc2ncc(F)c(-c3cccc(C4COC4)c3)n2)C1 (relative stereo) [Compound 170, cis-3-((5-fluoro-4-(3-(oxetan-3-yl)phenyl)pyrimidin-2-yl)amino)cyclohexane-1-carboxamide] | > 6.30
10 | NC(=O)[C@H]1CCC[C@@H](Nc2ncc(F)c(-c3cccc(C4(O)COC4)c3)n2)C1 (relative stereo) [Compound 173, cis-3-((5-fluoro-4-(3-(3-hydroxyoxetan-3-yl)phenyl)pyrimidin-2-yl)amino)cyclohexane-1-carboxamide] | > 6.30
11 | CC(C)(O)c1cc(-c2nc(N[C@@H]3CCC[C@H](C(N)=O)C3)ncc2F)ccn1 (relative stereo) [Compound 177, cis-3-((5-fluoro-4-(2-(2-hydroxypropan-2-yl)pyridin-4-yl)pyrimidin-2-yl)amino)cyclohexane-1-carboxamide] | > 6.30
12 | CC(=O)N1CCCC(c2cccc(-c3nc(N[C@@H]4CCC[C@H](C(N)=O)C4)ncc3F)c2)C1 (relative stereo) [Compound 178, cis-3-((4-(3-(1-acetylpiperidin-3-yl)phenyl)-5-fluoropyrimidin-2-yl)amino)cyclohexane-1-carboxamide] | > 6.30
13 | NC(=O)[C@H]1CCC[C@@H](Nc2ncc(F)c(-c3cccc(-c4cc[nH]c(=O)c4)c3)n2)C1 (relative stereo) [Compound 200, cis-3-((5-fluoro-4-(3-(2-oxo-1,2-dihydropyridin-4-yl)phenyl)pyrimidin-2-yl)amino)cyclohexane-1-carboxamide] | > 6.30
14 | NC(=O)[C@H]1CCC[C@@H](Nc2ncc(F)c(-c3cccc(N4CCCOC4=O)c3)n2)C1 (relative stereo) [Compound 227, cis-3-((5-fluoro-4-(3-(2-oxo-1,3-oxazinan-3-yl)phenyl)pyrimidin-2-yl)amino)cyclohexane-1-carboxamide] | > 6.30
15 | NC(=O)[C@@H]1CCC[C@H](Nc2ncc(F)c(-c3cccc(N4CCOCC4=O)c3)n2)C1 (relative stereo) [Compound 269, cis-3-((5-fluoro-4-(3-(3-oxomorpholino)phenyl)pyrimidin-2-yl)amino)cyclohexane-1-carboxamide] | > 6.30
16 | NC(=O)[C@@H]1CCC[C@H](Nc2ncc(F)c(-c3cccc(N4CCOCC4=O)n3)n2)C1 (relative stereo) [Compound 627, cis-3-((5-fluoro-4-(6-(3-oxomorpholino)pyridin-2-yl)pyrimidin-2-yl)amino)cyclohexane-1-carboxamide] | > 6.30
17 | NC(=O)[C@@H]1CCC[C@H](Nc2ncc(F)c(-c3ccnc(N4CCOCC4=O)c3)n2)C1 (relative stereo) [Compound 629, cis-3-((5-fluoro-4-(2-(3-oxomorpholino)pyridin-4-yl)pyrimidin-2-yl)amino)cyclohexane-1-carboxamide] | > 6.30
18 | NC(=O)C1CCC(Nc2ncc(Cl)c(-c3cccc(-c4ccccc4)c3)n2)CC1 (centres unmarked) [Compound 1, 4-((4-([1,1′-biphenyl]-3-yl)-5-chloropyrimidin-2-yl)amino)cyclohexane-1-carboxamide] | 6.00 to 6.30
19 | O=C(C1CCNCC1)N1CCC(Nc2ncc(Cl)c(-c3cccc(-c4ccccc4)c3)n2)CC1 [Compound 2, (4-((4-([1,1′-biphenyl]-3-yl)-5-chloropyrimidin-2-yl)amino)piperidin-1-yl)(piperidin-4-yl)methanone] | > 6.30
20 | CN1CCC(C(=O)N2CCC(Nc3ncc(Cl)c(-c4cccc(-c5ccccc5)c4)n3)CC2)CC1 [Compound 3, (4-((4-([1,1′-biphenyl]-3-yl)-5-chloropyrimidin-2-yl)amino)piperidin-1-yl)(1-methylpiperidin-4-yl)methanone] | > 6.30
21 | CC(=O)N1CCC(C(=O)N2CCC(Nc3ncc(Cl)c(-c4cccc(-c5ccccc5)c4)n3)CC2)CC1 [Compound 4, 1-(4-(4-((4-([1,1′-biphenyl]-3-yl)-5-chloropyrimidin-2-yl)amino)piperidine-1-carbonyl)piperidin-1-yl)ethan-1-one] | > 6.30
22 | O=C(CC1CCNCC1)N1CCC(Nc2ncc(Cl)c(-c3cccc(-c4ccccc4)c3)n2)CC1 [Compound 5, 1-(4-((4-([1,1′-biphenyl]-3-yl)-5-chloropyrimidin-2-yl)amino)piperidin-1-yl)-2-(piperidin-4-yl)ethan-1-one] | > 6.30
23 | CC(=O)N1CCC(CC(=O)N2CCC(Nc3ncc(Cl)c(-c4cccc(-c5ccccc5)c4)n3)CC2)CC1 [Compound 6, 1-(4-((4-([1,1′-biphenyl]-3-yl)-5-chloropyrimidin-2-yl)amino)piperidin-1-yl)-2-(1-acetylpiperidin-4-yl)ethan-1-one] | > 6.30
24 | O=C(CCC1CCNCC1)N1CCC(Nc2ncc(Cl)c(-c3cccc(-c4ccccc4)c3)n2)CC1 [Compound 7, 1-(4-((4-([1,1′-biphenyl]-3-yl)-5-chloropyrimidin-2-yl)amino)piperidin-1-yl)-3-(piperidin-4-yl)propan-1-one] | > 6.30
25 | CC(=O)N1CCC(CCC(=O)N2CCC(Nc3ncc(Cl)c(-c4cccc(-c5ccccc5)c4)n3)CC2)CC1 [Compound 8, 1-(4-((4-([1,1′-biphenyl]-3-yl)-5-chloropyrimidin-2-yl)amino)piperidin-1-yl)-3-(1-acetylpiperidin-4-yl)propan-1-one] | > 6.30
26 | CN1CCC(CC(=O)N2CCC(Nc3ncc(Cl)c(-c4cccc(-c5ccccc5)c4)n3)CC2)CC1 [Compound 9, 1-(4-((4-([1,1′-biphenyl]-3-yl)-5-chloropyrimidin-2-yl)amino)piperidin-1-yl)-2-(1-methylpiperidin-4-yl)ethan-1-one] | > 6.30
27 | CN1CCC(CCC(=O)N2CCC(Nc3ncc(Cl)c(-c4cccc(-c5ccccc5)c4)n3)CC2)CC1 [Compound 10, 1-(4-((4-([1,1′-biphenyl]-3-yl)-5-chloropyrimidin-2-yl)amino)piperidin-1-yl)-3-(1-methylpiperidin-4-yl)propan-1-one] | > 6.30
28 | O=C(C1CCC2(CCNCC2)CC1)N1CCC(Nc2ncc(Cl)c(-c3cccc(-c4ccccc4)c3)n2)CC1 [Compound 11, (4-((4-([1,1′-biphenyl]-3-yl)-5-chloropyrimidin-2-yl)amino)piperidin-1-yl)(3-azaspiro[5.5]undecan-9-yl)methanone] | > 6.30
29 | CN1CCC2(CCC(C(=O)N3CCC(Nc4ncc(Cl)c(-c5cccc(-c6ccccc6)c5)n4)CC3)CC2)CC1 [Compound 12, (4-((4-([1,1′-biphenyl]-3-yl)-5-chloropyrimidin-2-yl)amino)piperidin-1-yl)(3-methyl-3-azaspiro[5.5]undecan-9-yl)methanone] | > 6.30
